From patent US10988477B2 (Merck Patent GmbH, priority 2018, dated 2021)

Target: GCN2 kinase (Homo sapiens, UniProt Q9P2K8)
Assay: GCN2 enzyme inhibition assay (Transcreener ADP2 fluorescence polarization)
Assay type: biochemical
Details: Enzyme activity for compounds of Formula IV; Ki(app), 280 μM ATP, 25° C.
How it was run: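 ADP formation read by Transcreener FP after a 1 h, 25 °C kinase reaction containing 280 μM ATP, 200 μM (RS)7 substrate and 4 nM GCN2, pH 7.5 Tris buffer. Compounds (0–8 μM final) were added 10 min before ATP. Percent inhibition gave IC50 and apparent Ki via tight-binding fit.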

Chain of GCN2 kinase (Q9P2K8 whole entry): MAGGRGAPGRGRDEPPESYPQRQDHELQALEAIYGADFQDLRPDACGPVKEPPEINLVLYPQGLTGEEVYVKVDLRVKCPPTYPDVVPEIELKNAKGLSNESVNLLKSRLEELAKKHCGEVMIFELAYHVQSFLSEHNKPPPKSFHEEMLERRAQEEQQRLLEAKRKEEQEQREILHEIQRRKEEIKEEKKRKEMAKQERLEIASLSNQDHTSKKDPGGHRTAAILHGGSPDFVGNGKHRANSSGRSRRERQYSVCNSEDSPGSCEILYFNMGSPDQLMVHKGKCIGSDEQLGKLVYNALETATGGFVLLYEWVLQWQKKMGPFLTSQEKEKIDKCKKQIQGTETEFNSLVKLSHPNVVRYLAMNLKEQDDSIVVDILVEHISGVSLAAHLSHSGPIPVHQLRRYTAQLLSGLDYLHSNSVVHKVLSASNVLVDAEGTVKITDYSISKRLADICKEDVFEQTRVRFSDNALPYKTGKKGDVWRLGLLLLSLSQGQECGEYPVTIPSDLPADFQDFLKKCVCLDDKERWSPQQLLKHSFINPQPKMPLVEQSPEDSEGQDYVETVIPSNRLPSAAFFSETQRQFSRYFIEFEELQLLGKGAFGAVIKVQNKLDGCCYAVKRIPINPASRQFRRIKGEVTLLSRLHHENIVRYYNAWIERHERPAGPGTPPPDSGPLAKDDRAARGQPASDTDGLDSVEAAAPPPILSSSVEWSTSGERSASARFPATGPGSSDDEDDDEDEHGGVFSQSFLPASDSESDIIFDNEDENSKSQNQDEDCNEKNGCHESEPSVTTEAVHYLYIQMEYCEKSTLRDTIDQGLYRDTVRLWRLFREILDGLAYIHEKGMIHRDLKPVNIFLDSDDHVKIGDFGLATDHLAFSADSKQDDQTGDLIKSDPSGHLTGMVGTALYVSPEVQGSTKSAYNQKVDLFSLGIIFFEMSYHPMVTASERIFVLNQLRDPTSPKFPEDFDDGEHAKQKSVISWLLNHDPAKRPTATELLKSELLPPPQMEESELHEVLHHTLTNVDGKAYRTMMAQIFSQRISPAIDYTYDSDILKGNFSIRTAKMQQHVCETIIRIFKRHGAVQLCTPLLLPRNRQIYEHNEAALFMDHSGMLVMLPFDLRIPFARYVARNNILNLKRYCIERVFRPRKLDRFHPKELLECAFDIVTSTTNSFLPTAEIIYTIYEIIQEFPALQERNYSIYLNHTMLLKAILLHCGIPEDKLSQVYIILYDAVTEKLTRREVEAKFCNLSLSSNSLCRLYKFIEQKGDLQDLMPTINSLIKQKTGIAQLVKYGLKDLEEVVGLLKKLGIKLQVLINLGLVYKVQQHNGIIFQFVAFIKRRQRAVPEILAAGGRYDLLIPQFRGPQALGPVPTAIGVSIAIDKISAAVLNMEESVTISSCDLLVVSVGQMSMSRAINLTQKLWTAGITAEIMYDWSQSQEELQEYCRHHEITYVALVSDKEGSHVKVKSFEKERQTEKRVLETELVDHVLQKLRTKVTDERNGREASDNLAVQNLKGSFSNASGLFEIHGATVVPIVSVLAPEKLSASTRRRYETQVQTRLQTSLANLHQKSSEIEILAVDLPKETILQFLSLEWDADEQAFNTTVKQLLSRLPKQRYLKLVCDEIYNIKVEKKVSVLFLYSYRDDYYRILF

| SMILES | Ki [nM] |
| --- | --- |
| CC(=O)N(C)C1CCN(c2ccnc(-c3cnc4cnc(C(N)=O)cn34)n2)C1 (stereo not shown) [IV-267, 3-(4-(3-(N-Methylacetamido)pyrrolidin-1-yl)pyrimidin-2-yl)imidazo[1,2-a]pyrazine-6-carboxamide] | 100 to 1000 |
| NC(=O)c1cn2c(-c3nccc(N4CC(=O)N5CCCC5C4)n3)cnc2cn1 (stereo not shown) [IV-268, 3-(4-(4-Oxohexahydropyrrolo[1,2-a]pyrazin-2(1H)-yl)pyrimidin-2-yl)imidazo[1,2-a]pyrazine-6-carboxamide] | 100 to 1000 |
| NC(=O)c1cn2c(-c3nccc(N4CC5(CCOC5)C4)n3)cnc2cn1 [IV-270, 3-(4-(6-Oxa-2-azaspiro[3.4]octan-2-yl)pyrimidin-2-yl)imidazo[1,2-a]pyrazine-6-carboxamide] | 100 to 1000 |
| CC1CCC(C)N(c2ccnc(-c3cnc4cnc(C(N)=O)cn34)n2)C1 (stereo not shown) [IV-271, 3-(4-(2,5-Dimethylpiperidin-1-yl)pyrimidin-2-yl)imidazo[1,2-a]pyrazine-6-carboxamide] | 100 to 1000 |
| CC(=O)N1CCN(c2ccnc(-c3cnc4cnc(C(N)=O)cn34)n2)C(C)C1 (stereo not shown) [IV-272, 3-(4-(4-Acetyl-2-methylpiperazin-1-yl)pyrimidin-2-yl)imidazo[1,2-a]pyrazine-6-carboxamide] | 100 to 1000 |
| CC(=O)N1CCN(c2cccc(-c3cnc4cnc(C(=O)N(C)C)cn34)n2)CC1 [IV-276, 3-(6-(4-Acetylpiperazin-1-yl)pyridin-2-yl)-N,N-dimethylimidazo[1,2-a]pyrazine-6-carboxamide] | 100 to 1000 |
| NC(=O)c1cn2c(-c3cccc(N4CCN(C(=O)C5CC5)CC4)n3)cnc2cn1 [IV-284, 3-(6-(4-(Cyclopropanecarbonyl)piperazin-1-yl)pyridin-2-yl)imidazo[1,2-a]pyrazine-6-carboxamide] | 100 to 1000 |
| CC(=O)N1CCN(c2ccnc(-c3cnc4cnc(-c5cccnc5)cn34)n2)CC1 [IV-289, 1-(4-(2-(6-(Pyridin-3-yl)imidazo[1,2-a]pyrazin-3-yl)pyrimidin-4-yl)piperazin-1-yl)ethan-1-one] | 100 to 1000 |
| CC(=O)N1CCN(c2ccnc(-c3cnc4cnc(-c5ccccc5)cn34)n2)CC1 [IV-297, 1-(4-(2-(6-Phenylimidazo[1,2-a]pyrazin-3-yl)pyrimidin-4-yl)piperazin-1-yl)ethan-1-one] | 100 to 1000 |
| CC(=O)Nc1ccc(-c2cn3c(-c4nccc(N5CCN(C(C)=O)CC5)n4)cnc3cn2)cc1 [IV-298, N-(4-(3-(4-(4-Acetylpiperazin-1-yl)pyrimidin-2-yl)imidazo[1,2-a]pyrazin-6-yl)phenyl)acetamide] | 100 to 1000 |
| CC(=O)N1CCN(c2ccnc(-c3cnc4cnc(-c5c[nH]nc5C)cn34)n2)CC1 [IV-300, 1-(4-(2-(6-(3-Methyl-1H-pyrazol-4-yl)imidazo[1,2-a]pyrazin-3-yl)pyrimidin-4-yl)piperazin-1-yl)ethan-1-one] | 100 to 1000 |
| CC(=O)N1CCN(c2ccnc(-c3cnc4cnc(-c5ccccc5C#N)cn34)n2)CC1 [IV-301, 2-(3-(4-(4-Acetylpiperazin-1-yl)pyrimidin-2-yl)imidazo[1,2-a]pyrazin-6-yl)benzonitrile] | 100 to 1000 |
| CC(=O)N1CCN(c2ccnc(-c3cnc4cnc(-c5ccc(CO)cc5)cn34)n2)CC1 [IV-302, 1-(4-(2-(6-(4-(Hydroxymethyl)phenyl)imidazo[1,2-a]pyrazin-3-yl)pyrimidin-4-yl)piperazin-1-yl)ethan-1-one] | 100 to 1000 |
| CC(=O)N1CCN(c2ccnc(-c3cnc4cnc(-c5ccc(C(N)=O)cc5)cn34)n2)CC1 [IV-303, 4-(3-(4-(4-Acetylpiperazin-1-yl)pyrimidin-2-yl)imidazo[1,2-a]pyrazin-6-yl)benzamide] | 100 to 1000 |
| CC(=O)N1CCN(c2ccnc(-c3cnc4cnc(-c5cn(C)nc5C)cn34)n2)CC1 [IV-307, 1-(4-(2-(6-(1,3-Dimethyl-1H-pyrazol-4-yl)imidazo[1,2-a]pyrazin-3-yl)pyrimidin-4-yl)piperazin-1-yl)ethan-1-one] | 100 to 1000 |
| CC(=O)N1CCN(c2ccnc(-c3cnc4cnc(-c5cccc(CO)c5)cn34)n2)CC1 [IV-308, 1-(4-(2-(6-(3-(Hydroxymethyl)phenyl)imidazo[1,2-a]pyrazin-3-yl)pyrimidin-4-yl)piperazin-1-yl)ethan-1-one] | 100 to 1000 |

Now from value to compound:

| Ki [nM] | SMILES |
| --- | --- |
| 100 to 1000 | NC(=O)c1cn2c(-c3nccc(N4CC(=O)N5CCCCC5C4)n3)cnc2cn1 (stereo not shown) [IV-263, 3-(4-(4-Oxooctahydro-2H-pyrido[1,2-a]pyrazin-2-yl)pyrimidin-2-yl)imidazo[1,2-a]pyrazine-6-carboxamide] |
| < 10 | CC1CCCN(c2ccnc(-c3cnc4cnc(C(N)=O)cn34)n2)C1C (stereo not shown) [IV-264, 3-(4-(2,3-Dimethylpiperidin-1-yl)pyrimidin-2-yl)imidazo[1,2-a]pyrazine-6-carboxamide] |
| 100 to 1000 | NC(=O)c1cn2c(-c3nccc(N4CCN5CCCCC5C4)n3)cnc2cn1 (stereo not shown) [IV-265, 3-(4-(Octahydro-2H-pyrido[1,2-a]pyrazin-2-yl)pyrimidin-2-yl)imidazo[1,2-a]pyrazine-6-carboxamide] |
| 10 to 100 | NC(=O)c1cn2c(-c3nccc(N4CCC5(CC4)OCCO5)n3)cnc2cn1 [IV-266, 3-(4-(1,4-Dioxa-8-azaspiro[4.5]decan-8-yl)pyrimidin-2-yl)imidazo[1,2-a]pyrazine-6-carboxamide] |
| 10 to 100 | NC(=O)c1cn2c(-c3nccc(N4CCC5(CCCO5)CC4)n3)cnc2cn1 [IV-269, 3-(4-(1-Oxa-8-azaspiro[4.5]decan-8-yl)pyrimidin-2-yl)imidazo[1,2-a]pyrazine-6-carboxamide] |
| 10 to 100 | NC(=O)c1cn2c(-c3nccc(N4CCN(C(=O)C5CC5)CC4)n3)cnc2cn1 [IV-277, 3-(4-(4-(Cyclopropanecarbonyl)piperazin-1-yl)pyrimidin-2-yl)imidazo[1,2-a]pyrazine-6-carboxamide] |
| < 10 | Cc1[nH]ncc1C1NC(C)CN(c2ccnc(-c3cnc4cnc(Cl)cn34)n2)C1C (stereo not shown) [IV-278, 6-Chloro-3-(4-(2,5-dimethyl-3-(5-methyl-1H-pyrazol-4-yl)piperazin-1-yl)pyrimidin-2-yl)imidazo[1,2-a]pyrazine] |
| 10 to 100 | CC(=O)N1CCN(c2ccnc(-c3cnc4cnc(-c5ccncc5)cn34)n2)CC1 [IV-285, 1-(4-(2-(6-(Pyridin-4-yl)imidazo[1,2-a]pyrazin-3-yl)pyrimidin-4-yl)piperazin-1-yl)ethan-1-one] |
| 10 to 100 | O=C1CCCC2CN(c3ccnc(-c4cnc5cnc(Cl)cn45)n3)CCN12 (stereo not shown) [IV-286, 2-(2-(6-Chloroimidazo[1,2-a]pyrazin-3-yl)pyrimidin-4-yl)octahydro-6H-pyrido[1,2-c]pyrazin-6-one] |
| < 10 | CCN1C(C)CN(c2ccnc(-c3cnc4cnc(C(F)(F)F)cn34)n2)C(C)C1c1cn[nH]c1 (stereo not shown) [IV-292, 3-(4-(4-Ethyl-2,5-dimethyl-3-(1H-pyrazol-4-yl)piperazin-1-yl)pyrimidin-2-yl)-6-(trifluoromethyl)imidazo[1,2-a]pyrazine] |
| 10 to 100 | CCOc1cccc(-c2cn3c(-c4nccc(N5CCN(C(C)=O)CC5)n4)cnc3cn2)c1 [IV-299, 1-(4-(2-(6-(3-Ethoxyphenyl)imidazo[1,2-a]pyrazin-3-yl)pyrimidin-4-yl)piperazin-1-yl)ethan-1-one] |
| < 10 | CC1CC(c2cn[nH]c2)C(C)N(c2ccnc(-c3cnc4cnc(C(F)(F)F)cn34)n2)C1 (stereo not shown) [IV-304, 3-(4-(2,5-Dimethyl-3-(1H-pyrazol-4-yl)piperidin-1-yl)pyrimidin-2-yl)-6-(trifluoromethyl)imidazo[1,2-a]pyrazine] |
